Experimental data published in patent publication US9650395B2, “Antibacterial compounds and methods for use” (PTC Therapeutics, Inc., priority 2011, dated 2017).
Converted amounts (≈) assume the structure as drawn.

What was measured:
[1] = tested on: control Gram-negative E. coli 25922 strain; assay: Antibacterial activity, microbroth dilution MIC, E. coli 25922; assay type: cell-based, Escherichia coli; conditions: Escherichia coli; E. coli 25922, microbroth dilution; read-out: MIC, 25922
[2] = tested on: quinolone resistant E. coli LZ3111; assay: Antibacterial activity, MIC, quinolone resistant E. coli LZ3111; assay type: cell-based, Escherichia coli; conditions: Escherichia coli, read-out: MIC, LZ3111
From the text: (§1) The antibacterial activity from a microbroth dilution method may be presented as the minimum inhibitory concentration (MIC in […]). The MIC value is the lowest concentration of a drug which prevents macroscopically visible bacterial growth under test conditions.
Mutations in these regions are known to confer a high level resistance to the quinolone class of antibiotics.

[3] = tested on: Acinetobacter baumannii (A. baumannii) BAA747; assay: Antibacterial activity, MIC, A. baumannii BAA747; assay type: cell-based; conditions: Acinetobacter baumannii; A. baumannii BAA747; read-out: MIC BAA747
[4] = tested on: resistant A. baumannii MXX2240 (MDR clinical isolate); assay: Antibacterial activity, MIC, resistant A. baumannii MXX2240; assay type: cell-based, Acinetobacter baumannii; conditions: Acinetobacter baumannii, resistant A. baumannii MMX2240, MDR clinical isolate; read-out: MIC MMX2240
[5] = tested on: Gram-positive Staphylococcus aureus (S. aureus) 29213; assay: Antibacterial activity, microbroth dilution MIC, S. aureus 29213; assay type: cell-based; conditions: Staphylococcus aureus; S. aureus 29213, microbroth dilution; read-out: MIC, 29213
[6] = tested on: Pseudomonas aeruginosa (P. aeruginosa) 27853; assay: Antibacterial activity, MIC, P. aeruginosa 27853; assay type: cell-based; conditions: Pseudomonas aeruginosa, P. aeruginosa 27853; read-out: MIC 27853
From the text: as §1
Antibacterial activity of test compounds against the Gram-negative bacterium Pseudomonas aeruginosa (P. aeruginosa) 27853 is shown in Table 5.

[7] = tested on: Klebsiella pneumoniae (K. pneumoniae) 35657; assay: Antibacterial activity, MIC, K. pneumoniae 35657; assay type: cell-based; conditions: Klebsiella pneumoniae
[8] = tested on: resistant K. pneumoniae MXX1232 (MDR clinical isolate); assay: Antibacterial activity, MIC, resistant K. pneumoniae MXX1232; assay type: cell-based, Klebsiella pneumoniae; conditions: Klebsiella pneumoniae; resistant K. pneumoniae MMX1232, MDR clinical isolate; read-out: MIC MMX1232
[9] = tested on: super sensitive Gram-negative Escherichia coli (E. coli) BAS849; assay: Antibacterial activity, microbroth dilution MIC, E. coli BAS849; assay type: cell-based; conditions: Escherichia coli; E. coli BAS849, microbroth dilution; read-out: MIC, BAS849

For COCc1c(-c2ccc(N(C)C)cc2)[nH]c(=O)c(C(=O)O)c1O [Cpd 332, 6-(4-(dimethylamino)phenyl)-4-hydroxy-5-(methoxymethyl)-2-oxo-1,2-dihydropyridine-3-carboxylic acid], the MIC [1] was 12.5 to 150 µg/mL (≈ 39.3 to 471 µM), the MIC [2] was 12.5 to 150 µg/mL (≈ 39.3 to 471 µM) and the MIC [3] was 12.5 to 150 µg/mL (≈ 39.3 to 471 µM). It also gave an MIC [4] of 12.5 to 150 µg/mL (≈ 39.3 to 471 µM), an MIC [5] of 12.5 to 150 µg/mL (≈ 39.3 to 471 µM) and an MIC [6] of 12.5 to 150 µg/mL (≈ 39.3 to 471 µM). It also gave an MIC [7] of 12.5 to 150 µg/mL (≈ 39.3 to 471 µM), an MIC [8] of 12.5 to 150 µg/mL (≈ 39.3 to 471 µM) and an MIC [9] of 12.5 to 150 µg/mL (≈ 39.3 to 471 µM).

C/C=C/c1c(-c2ccc(N(C)C)cc2)[nH]c(=O)c(C(=O)O)c1O [Cpd 330, (E)-6-(4-(dimethylamino)phenyl)-4-hydroxy-2-oxo-5-(prop-1-enyl)-1,2-dihydropyridine-3-carboxylic acid] was tested, and the MIC [1] was 12.5 to 150 µg/mL (≈ 39.8 to 477 µM), the MIC [2] was 12.5 to 150 µg/mL (≈ 39.8 to 477 µM) and the MIC [3] was 12.5 to 150 µg/mL (≈ 39.8 to 477 µM). The MIC [4] was 12.5 to 150 µg/mL (≈ 39.8 to 477 µM), the MIC [5] was 12.5 to 150 µg/mL (≈ 39.8 to 477 µM) and the MIC [6] was 12.5 to 150 µg/mL (≈ 39.8 to 477 µM). For the same compound, the MIC [7] was 12.5 to 150 µg/mL (≈ 39.8 to 477 µM), the MIC [8] was 12.5 to 150 µg/mL (≈ 39.8 to 477 µM) and the MIC [9] was 1 to 3.5 µg/mL (≈ 3.18 to 11.1 µM).

Work on CN(C)c1ccc(-c2[nH]c(=O)c(C(=O)O)c(O)c2CC(O)CO)cc1 (stereo not drawn) [Cpd 329, 5-(2,3-dihydroxypropyl)-6-(4-(dimethylamino)phenyl)-4-hydroxy-2-oxo-1,2-dihydropyridine-3-carboxylic acid] yielded an MIC [1] of 12.5 to 150 µg/mL (≈ 35.9 to 431 µM), an MIC [2] of 3.5 to 12.5 µg/mL (≈ 10 to 35.9 µM) and an MIC [3] of 12.5 to 150 µg/mL (≈ 35.9 to 431 µM). For the same compound, the MIC [4] was 12.5 to 150 µg/mL (≈ 35.9 to 431 µM), the MIC [5] was 12.5 to 150 µg/mL (≈ 35.9 to 431 µM) and the MIC [6] was 12.5 to 150 µg/mL (≈ 35.9 to 431 µM). It also gave an MIC [7] of 12.5 to 150 µg/mL (≈ 35.9 to 431 µM), an MIC [8] of 12.5 to 150 µg/mL (≈ 35.9 to 431 µM) and an MIC [9] of 12.5 to 150 µg/mL (≈ 35.9 to 431 µM).

CCc1c(-c2ccc(C3CCN(CC)CC3)cc2)[nH]c(=O)c(C(=O)O)c1O [Cpd 339, 5-ethyl-6-(4-(1-ethylpiperidin-4-yl)phenyl)-4-hydroxy-2-oxo-1,2-dihydropyridine-3-carboxylic acid] showed an MIC [1] of 12.5 to 150 µg/mL (≈ 33.7 to 405 µM), an MIC [2] of 12.5 to 150 µg/mL (≈ 33.7 to 405 µM) and an MIC [3] of 12.5 to 150 µg/mL (≈ 33.7 to 405 µM). It also gave an MIC [4] of 12.5 to 150 µg/mL (≈ 33.7 to 405 µM), an MIC [5] of 12.5 to 150 µg/mL (≈ 33.7 to 405 µM) and an MIC [6] of 12.5 to 150 µg/mL (≈ 33.7 to 405 µM). It also gave an MIC [7] of 12.5 to 150 µg/mL (≈ 33.7 to 405 µM), an MIC [8] of 12.5 to 150 µg/mL (≈ 33.7 to 405 µM) and an MIC [9] of 3.5 to 12.5 µg/mL (≈ 9.45 to 33.7 µM).

With CC#Cc1c(-c2ccc(N(C)C)cc2)[nH]c(=O)c(C(=O)O)c1O [Cpd 333, 6-(4-(dimethylamino)phenyl)-4-hydroxy-2-oxo-5-(prop-1-ynyl)-1,2-dihydropyridine-3-carboxylic acid] the MIC [1] was 12.5 to 150 µg/mL (≈ 40 to 480 µM), the MIC [2] was 12.5 to 150 µg/mL (≈ 40 to 480 µM) and the MIC [3] was 12.5 to 150 µg/mL (≈ 40 to 480 µM). For the same compound, the MIC [4] was 12.5 to 150 µg/mL (≈ 40 to 480 µM), the MIC [5] was 12.5 to 150 µg/mL (≈ 40 to 480 µM) and the MIC [6] was 12.5 to 150 µg/mL (≈ 40 to 480 µM). It also gave an MIC [7] of 12.5 to 150 µg/mL (≈ 40 to 480 µM), an MIC [8] of 12.5 to 150 µg/mL (≈ 40 to 480 µM) and an MIC [9] of 1 to 3.5 µg/mL (≈ 3.2 to 11.2 µM).

CCc1cc(C(=O)O)c(=O)[nH]c1-c1ccc(N2CCC(NC3CC3)C2)cc1 (stereo not drawn) [Cpd 173, 6-{4-[3-(cyclopropylamino)pyrrolidin-1-yl]phenyl}-5-ethyl-2-oxo-1,2-dihydropyridine-3-carboxylic acid] showed an MIC [1] of 1 to 3.5 µg/mL (≈ 2.72 to 9.53 µM), an MIC [2] of 12.5 to 150 µg/mL (≈ 34 to 408 µM) and an MIC [3] of 3.5 to 12.5 µg/mL (≈ 9.53 to 34 µM). The MIC [4] was 12.5 to 150 µg/mL (≈ 34 to 408 µM), the MIC [5] was 12.5 to 150 µg/mL (≈ 34 to 408 µM) and the MIC [6] was 12.5 to 150 µg/mL (≈ 34 to 408 µM). For the same compound, the MIC [7] was 1 to 3.5 µg/mL (≈ 2.72 to 9.53 µM), the MIC [8] was 12.5 to 150 µg/mL (≈ 34 to 408 µM) and the MIC [9] was less than 1 µg/mL.

Work on Cc1c(-c2ccc(N3CCC(N(C)C)C3)nc2)[nH]c(=O)c(C(=O)O)c1O (stereo not drawn) [Cpd 337, 6-(6-(3-(dimethylamino)pyrrolidin-1-yl)pyridin-3-yl)-4-hydroxy-5-methyl-2-oxo-1,2-dihydropyridine-3-carboxylic acid] yielded an MIC [1] of 12.5 to 150 µg/mL (≈ 34.9 to 419 µM), an MIC [2] of less than 1 µg/mL and an MIC [3] of 12.5 to 150 µg/mL (≈ 34.9 to 419 µM). For the same compound, the MIC [4] was 12.5 to 150 µg/mL (≈ 34.9 to 419 µM), the MIC [5] was 12.5 to 150 µg/mL (≈ 34.9 to 419 µM) and the MIC [6] was 12.5 to 150 µg/mL (≈ 34.9 to 419 µM). The MIC [7] was 12.5 to 150 µg/mL (≈ 34.9 to 419 µM), the MIC [8] was 12.5 to 150 µg/mL (≈ 34.9 to 419 µM) and the MIC [9] was 12.5 to 150 µg/mL (≈ 34.9 to 419 µM).

With CN(C)c1ccc(-c2[nH]c(=O)c(C(=O)O)c(O)c2CO)cc1 [Cpd 331, 6-(4-(dimethylamino)phenyl)-4-hydroxy-5-(hydroxymethyl)-2-oxo-1,2-dihydropyridine-3-carboxylic acid] the MIC [1] was 12.5 to 150 µg/mL (≈ 41.1 to 493 µM), the MIC [2] was 3.5 to 12.5 µg/mL (≈ 11.5 to 41.1 µM) and the MIC [3] was 12.5 to 150 µg/mL (≈ 41.1 to 493 µM). The MIC [4] was 12.5 to 150 µg/mL (≈ 41.1 to 493 µM), the MIC [5] was 12.5 to 150 µg/mL (≈ 41.1 to 493 µM) and the MIC [6] was 12.5 to 150 µg/mL (≈ 41.1 to 493 µM). For the same compound, the MIC [7] was 12.5 to 150 µg/mL (≈ 41.1 to 493 µM), the MIC [8] was 12.5 to 150 µg/mL (≈ 41.1 to 493 µM) and the MIC [9] was 1 to 3.5 µg/mL (≈ 3.29 to 11.5 µM).
